# Reference: patent publication US6403805B1 (Janssen Pharmaceutica N.V., priority 1995, dated 2002)
# System: dextran-induced oedema formation in mouse ear
# Experiment: Dextran-induced oedema formation in mouse ear
# Type: in vivo, Male Swiss mice
# Conditions: vs background blueing value
# Method: Dextran-induced oedema formation in mouse ear Systemic injection of dextran T500 in normal, non-sensitized mice elicits increased vascular permeability, leading to extravasation and oedema of the extremities. When dextran is injected together with a blue dye, blueing of the ears is the most prominent feature of oedematous response. Male Swiss mice weighting 24-26 g were orally pretreated with the test compound dissolved in PEG-200 at different concentrations or solvent. One hour later, the mice were given an intravenous injection with an isotonic saline solution containing 12 mg/ml dextran T500 and 2.6 mg/ml pontamine sky-blue dye, in a volume of 0.1 ml per 10 g body weight. One hour and forty-five minutes later, the animals are sacrificed by ether and their ears removed. Extraction and quantification of the extravasated dye is done as described by Van Wauwe and Goossens (Drug Dev. Res. 1986, 8, 213-218). The extravasation of the dye is characterized by the blueing value which is defined as the concentration of the extracted dye in both ears. The background blueing value was determined once as the mean blueing value obtained by injecting a group of mice with a saline solution containing only dextran T500 and the blue dye. Table 6 lists the percentage inhibition of the extravasation of the dye when compared with the background extravasation of the dye when the test compound was administered at a dose of 5 mg/kg. The test compounds indicated by an asterisk (*) were tested at a dose of 2.5 mg/kg
# [1] = oral dose of 5 mg/kg in PEG-200, one hour before i.v. dextran T500/pontamine sky-blue
# [2] = Mus musculus, 1 h, oral dose of 5 mg/kg in PEG-200, one hour before i.v. dextran T500/pontamine sky-blue, read-out: % inhibition of the extravasation of the dye
Compound,% inhibition of the extravasation of the dye [1],inhibition in vivo at 5 mg/kg [2],further results
"COc1ccc(C(O)CN2CCNC2=O)cc1OC (racemic) [Compound 13, ±)-1-[2-(3,4-dimethoxyphenyl)-2-hydroxy-ethyl]-2-imidazolidinone]",36.3%,,
"CCOC(=O)Cn1ccn(C(C)c2ccc(OC)c(OC3CCCC3)c2)c1=O (racemic) [Compound 9, (±)-ethyl 3-[1-[3-(cyclopentyloxy)-4-methoxy-phenyl]ethyl]-2,3-dihydro-2-oxo-1H-imidazole-1-acetate]",,10.2%,
"COc1cc(Br)c(CCn2cc[nH]c2=O)cc1OC [Compound 81, 1,3-dihydro-2-[2-(2-bromo-4,5-dimethoxyphenyl)ethyl]-2H-imidazol-2-one]",34.1%,,
"COc1ccc(Cn2cc[nH]c2=O)cc1OC [Compound 84, 1,3-dihydro-1-[(3,4-dimethoxyphenyl)methyl]-2H-imidazol-2-one]",,46.5%,
"COc1ccc(C(C)Cn2cc[nH]c2=O)cc1OCC1CC1 (stereo not shown) [Compound 23, (B)-1-[2-[3-(cyclopropylmethoxy)-4-methoxyphenyl]propyl]-1,3-dihydro-2H-imidazol-2-one]",72.1%,,
"COc1ccc(C(N)CN2CCN(Cc3ccccc3)C2=O)cc1OC (racemic) [Compound 11, (±)-1-[2-amino-2-(3,4-dimethoxyphenyl)ethyl]-3-(phenylmethyl)-2-imidazolidinone]",,26.8%,
"O=c1[nH]ccn1CC(F)c1ccc(OC(F)F)c(OCC2CC2)c1 (racemic) [Compound 20, (±)-1-[2-[3-(cyclopropylmethoxy)-4-(difluoromethoxy)phenyl-2-fluoroethyl]-1,3-dihydro-2H-imidazol-2-one]",,,"% inhibition of the extravasation of the dye (asterisk (*): oral dose of 2.5 mg/kg in PEG-200, one hour before i.v. dextran T500/pontamine sky-blue): 94.4%"
"COc1ccc(C(CN2CCNC2=O)NC(C)=O)cc1OC (racemic) [Compound 16, (±)-N-[1-(3,4-dimethoxyphenyl)[2-(2-oxo-1-imidazolidinyl)-ethyl]acetamide]",10.8%,,
"COc1ccc(C(O)Cn2cc[nH]c2=O)cc1O (racemic) [Compound 19, (±)-1,3-dihydro-1-[2-hydroxy-2-(3-hydroxy-4-methoxyphenyl)ethyl]-2H-imidazol-2-one]",,,"inhibition in vivo at 2.5 mg/kg (Mus musculus, 1 h, asterisk (*): oral dose of 2.5 mg/kg in PEG-200, one hour before i.v. dextran T500/pontamine sky-blue, read-out: % inhibition of the extravasation of the dye): 49.4%"
"COc1ccc(CCCn2cc[nH]c2=O)cc1OC [Compound 85, 1,3-dihydro-1-[3-(3,4-dimethoxyphenyl)propyl]-2H-imidazol-2-one]",,31.6%,
